PubChem BioAssay AID2060909 (Molecular Pharmacology Branch, DTP, NCI, 2025)
Values joined by “and” are separate entries in the source; they are usually repeats but may differ in a detail not shown here. Identical values can stand only once.

System: 362531-283-R-J2-PDC complex spheroid viability
Experiment: Anticancer human tumor 362531-283-R-J2-PDC patient-derived colon adenocarcinoma cell line growth inhibition [RAS]
Conditions: for viability, T/C: stronger effect = lower value; active = viability on the fitted dose curve at most 10% of control; inactive = the rest
In short: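 Agents were tested in combination matrices in half-log decrements from a top concentration at or near clinical Cmax (10 microM if undetermined). Targets were multi-cell spheroids of tumour lines plus HUVEC and MSC stromal cells.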

[1] = curve of first compound, second compound 0.0316 µM
[2] = curve of first compound, second compound 0.1 µM
[3] = curve of first compound, second compound 0.316 µM
[4] = curve of first compound, second compound 1 µM
[5] = second compound 0.0316 µM, first compound 0.0316 µM
[6] = second compound 0.0316 µM, first compound 0.1 µM
[7] = second compound 0.0316 µM, first compound 0.316 µM
[8] = second compound 0.0316 µM, first compound 1 µM
[9] = second compound 0.1 µM, first compound 0.0316 µM
[10] = second compound 0.1 µM, first compound 0.1 µM
[11] = second compound 0.1 µM, first compound 0.316 µM
[12] = second compound 0.1 µM, first compound 1 µM
[13] = second compound 0.316 µM, first compound 0.0316 µM
[14] = second compound 0.316 µM, first compound 0.1 µM
[15] = second compound 0.316 µM, first compound 0.316 µM
[16] = second compound 0.316 µM, first compound 1 µM
[17] = second compound 1 µM, first compound 0.0316 µM
[18] = second compound 1 µM, first compound 0.1 µM
[19] = second compound 1 µM, first compound 0.316 µM
[20] = second compound 1 µM, first compound 1 µM
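Note: spheroids exposed to the agents for 7 days before readout.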
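Throughout, for viability, T/C: luminescence viability as percent of DMSO vehicle control wells.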

CCC(CC)c1cc(NC2CCC(N)C2)n2nccc2n1 (stereo not drawn) + C#Cc1c(F)ccc2cc(O)cc(-c3ncc4c(N5CC6CCC(C5)N6)nc(OCC56CCCN5CC(F)C6)nc4c3F)c12
1820 nM: IC50 [4]
active: viability, T/C (second compound 0.0316 µM, first compound 10 µM) 4.8% | viability, T/C (second compound 0.1 µM, first compound 10 µM) 3.26% | viability, T/C (second compound 0.316 µM, first compound 10 µM) 2.95% | viability, T/C (second compound 1 µM, first compound 10 µM) 4.12% | viability, T/C (second compound 3.16 µM, first compound 3.16 µM) 5.75% | viability, T/C (second compound 3.16 µM, first compound 10 µM) 3.27% | viability, T/C (second compound 10 µM, first compound 3.16 µM) 7.13% | viability, T/C (second compound 10 µM, first compound 10 µM) 4.45%
5070 nM: IC50 [3]
inactive: viability, T/C [5] 96.9% | viability, T/C [6] 107% | viability, T/C [7] 99.9% | viability, T/C [8] 105% | viability, T/C (second compound 0.0316 µM, first compound 3.16 µM) 79% | viability, T/C [9] 105% | viability, T/C [10] 98.8% | viability, T/C [11] 101% | viability, T/C [12] 88% | viability, T/C (second compound 0.1 µM, first compound 3.16 µM) 70% | viability, T/C [13] 117% | viability, T/C [14] 96.9% | viability, T/C [15] 89.5% | viability, T/C [16] 83.3% | viability, T/C (second compound 0.316 µM, first compound 3.16 µM) 87.2% | viability, T/C [17] 80.4% | viability, T/C [18] 88.3% | viability, T/C [19] 82.2% | viability, T/C [20] 82.9% | viability, T/C (second compound 1 µM, first compound 3.16 µM) 19.8% | viability, T/C (second compound 3.16 µM, first compound 0.0316 µM) 72.4% | viability, T/C (second compound 3.16 µM, first compound 0.1 µM) 76.3% | viability, T/C (second compound 3.16 µM, first compound 0.316 µM) 68.1% | viability, T/C (second compound 3.16 µM, first compound 1 µM) 79.2% | viability, T/C (second compound 10 µM, first compound 0.0316 µM) 44.2% | viability, T/C (second compound 10 µM, first compound 0.1 µM) 49.4% | viability, T/C (second compound 10 µM, first compound 0.316 µM) 58.1% | viability, T/C (second compound 10 µM, first compound 1 µM) 36.2%
338 nM: IC50 (curve of first compound, second compound 10 µM)
4360 nM: IC50 [2]
1500 nM: IC50 (curve of first compound, second compound 3.16 µM)
4960 nM: IC50 [1]

Nc1ccn(C2OC(CO)C(O)C2(F)F)c(=O)n1 (stereo not drawn) + C=CC(=O)N1CCN(c2nc(OCC3CCCN3C)nc3c(F)c(-c4nc(N)cc(C)c4C(F)(F)F)c(Cl)cc23)C(C)C1
inactive: viability, T/C (second compound 0.00316 µM, first compound 0.00316 µM) 107% | viability, T/C (second compound 0.00316 µM, first compound 0.01 µM) 100% | viability, T/C (second compound 0.00316 µM, first compound 0.0316 µM) 81.2% | viability, T/C (second compound 0.00316 µM, first compound 0.1 µM) 61.8% | viability, T/C (second compound 0.00316 µM, first compound 0.316 µM) 22.7% | viability, T/C (second compound 0.00316 µM, first compound 1 µM) 29.7% | viability, T/C (second compound 0.01 µM, first compound 0.00316 µM) 93.5% | viability, T/C (second compound 0.01 µM, first compound 0.01 µM) 95.3% | viability, T/C (second compound 0.01 µM, first compound 0.0316 µM) 80.9% | viability, T/C (second compound 0.01 µM, first compound 0.1 µM) 70% | viability, T/C (second compound 0.01 µM, first compound 0.316 µM) 21.7% | viability, T/C (second compound 0.01 µM, first compound 1 µM) 30.7% | viability, T/C (second compound 0.0316 µM, first compound 0.00316 µM) 93.5% | viability, T/C (second compound 0.0316 µM, first compound 0.01 µM) 91% | viability, T/C [5] 87.7% | viability, T/C [6] 64.9% | viability, T/C [7] 23.6% | viability, T/C [8] 27% | viability, T/C (second compound 0.1 µM, first compound 0.00316 µM) 94.9% | viability, T/C (second compound 0.1 µM, first compound 0.01 µM) 94.9% | viability, T/C [9] 77.4% | viability, T/C [10] 61% | viability, T/C [11] 23.6% | viability, T/C [12] 31.7% | viability, T/C (second compound 0.316 µM, first compound 0.00316 µM) 93.8% | viability, T/C (second compound 0.316 µM, first compound 0.01 µM) 97.1% | viability, T/C [13] 89.4% | viability, T/C [14] 75.7% | viability, T/C [15] 23.3% | viability, T/C [16] 27.6% | viability, T/C (second compound 1 µM, first compound 0.00316 µM) 105% | viability, T/C (second compound 1 µM, first compound 0.01 µM) 97.9% | viability, T/C [17] 78.9% | viability, T/C [18] 65.2% | viability, T/C [19] 25.1% | viability, T/C [20] 29.7%
180 nM: IC50 [3]
154 nM: IC50 [1]
144 nM: IC50 [4]
130 nM: IC50 [2]
169 nM: IC50 (curve of first compound, second compound 0.01 µM)
129 nM: IC50 (curve of first compound, second compound 0.00316 µM)

CC(C)n1nc(-c2ccc3oc(N)nc3c2)c2c(N)ncnc21 + CCn1c(-c2cccnc2C(C)OC)c2c3cc(ccc31)N1CCOC(CC(NC(=O)C(C(C)C)N(C)C(=O)C3(F)CCN(C(=O)C#CC(C)(C)N(C)C)CC3)C(=O)N3CCCC(N3)C(=O)OCC(C)(C)C2)C1
85.7 nM: IC50 (curve of first compound, second compound 0.003 µM)
inactive: viability, T/C (second compound 0.000949 µM, first compound 0.000316 µM) 95.5% | viability, T/C (second compound 0.000949 µM, first compound 0.001 µM) 98.7% | viability, T/C (second compound 0.000949 µM, first compound 0.00316 µM) 108% | viability, T/C (second compound 0.000949 µM, first compound 0.01 µM) 96.2% | viability, T/C (second compound 0.000949 µM, first compound 0.0316 µM) 75% | viability, T/C (second compound 0.000949 µM, first compound 0.1 µM) 39.4% | viability, T/C (second compound 0.003 µM, first compound 0.000316 µM) 99.9% | viability, T/C (second compound 0.003 µM, first compound 0.001 µM) 92.8% | viability, T/C (second compound 0.003 µM, first compound 0.00316 µM) 102% | viability, T/C (second compound 0.003 µM, first compound 0.01 µM) 92.2% | viability, T/C (second compound 0.003 µM, first compound 0.0316 µM) 74.5% | viability, T/C (second compound 0.003 µM, first compound 0.1 µM) 46.2% | viability, T/C (second compound 0.00949 µM, first compound 0.000316 µM) 98.9% | viability, T/C (second compound 0.00949 µM, first compound 0.001 µM) 108% | viability, T/C (second compound 0.00949 µM, first compound 0.00316 µM) 92.9% | viability, T/C (second compound 0.00949 µM, first compound 0.01 µM) 114% | viability, T/C (second compound 0.00949 µM, first compound 0.0316 µM) 57.3% | viability, T/C (second compound 0.00949 µM, first compound 0.1 µM) 40.6% | viability, T/C (second compound 0.03 µM, first compound 0.000316 µM) 103% | viability, T/C (second compound 0.03 µM, first compound 0.001 µM) 93% | viability, T/C (second compound 0.03 µM, first compound 0.00316 µM) 107% | viability, T/C (second compound 0.03 µM, first compound 0.01 µM) 95.5% | viability, T/C (second compound 0.03 µM, first compound 0.0316 µM) 63.9% | viability, T/C (second compound 0.03 µM, first compound 0.1 µM) 43.2% | viability, T/C (second compound 0.0949 µM, first compound 0.000316 µM) 90.4% | viability, T/C (second compound 0.0949 µM, first compound 0.001 µM) 93.9% | viability, T/C (second compound 0.0949 µM, first compound 0.00316 µM) 95.5% | viability, T/C (second compound 0.0949 µM, first compound 0.01 µM) 106% | viability, T/C (second compound 0.0949 µM, first compound 0.0316 µM) 68.7% | viability, T/C (second compound 0.0949 µM, first compound 0.1 µM) 43.1% | viability, T/C (second compound 0.3 µM, first compound 0.000316 µM) 87.9% | viability, T/C (second compound 0.3 µM, first compound 0.001 µM) 105% | viability, T/C (second compound 0.3 µM, first compound 0.00316 µM) 103% | viability, T/C (second compound 0.3 µM, first compound 0.01 µM) 103% | viability, T/C (second compound 0.3 µM, first compound 0.0316 µM) 71.8% | viability, T/C (second compound 0.3 µM, first compound 0.1 µM) 37.3%
65.4 nM: IC50 (curve of first compound, second compound 0.3 µM)
52.3 nM: IC50 (curve of first compound, second compound 0.00949 µM)
68.6 nM: IC50 (curve of first compound, second compound 0.03 µM)
70.8 nM: IC50 (curve of first compound, second compound 0.000949 µM)
73.3 nM: IC50 (curve of first compound, second compound 0.0949 µM)

Nc1ccn(C2OC(CO)C(O)C2(F)F)c(=O)n1 (stereo not drawn)
inactive: viability, T/C (compound 0.00316 µM) 93.5% [middle of 4 runs] | viability, T/C (compound 0.01 µM) 95.2% [middle of 4 runs] | viability, T/C (compound 0.0316 µM) 84.4% [middle of 4 runs] | viability, T/C (compound 0.1 µM) 70.5% [middle of 4 runs] | viability, T/C (compound 0.316 µM) 21.9% [middle of 4 runs] | viability, T/C (compound 1 µM) 26.6% [middle of 4 runs]
167 nM [middle of 4 runs]: IC50 (curve of compound)

CCN1CCN(Cc2ccc(Nc3ncc(F)c(-c4cc(F)c5nc(C)n(C(C)C)c5c4)n3)nc2)CC1
inactive: viability, T/C (compound 0.00316 µM) 100% (2×) and 99.6% and 106% | viability, T/C (compound 0.01 µM) 95.9% [middle of 4 runs] | viability, T/C (compound 0.1 µM) 79.9% [middle of 4 runs] | viability, T/C (compound 0.316 µM) 65.4% [middle of 4 runs]
> 1000 nM: IC50 (curve of compound)
